The results in this text go back to patent publication US20100240603A1, “EXPRESSION INHIBITOR OF NUCLEAR TRANSCRIPTION FACTOR AP-1 AND PHARMACEUTICALS AND PRODUCTS USING THE SAME” (ARKRAY, INC., priority 2006, published 2010).

Values after ≈ are worked out from the molar mass of the structure shown.

One assay concerns NF-κB. Nature of the assay: NF-κB SEAP reporter assay in TNF-alpha-stimulated HeLa cells. Format: cell-based. Particulars: TNF-alpha 40 ng/mL, 24 h. Here is the method: (§1) HeLa cells were tripsinized and centrifuged at 4° C. and 1,000 rpm for 3 minutes. The collected Hela cells were seeded on a 30-mm dish so that the density was 2×10^5 cells/well, which served as a test plate. With the test plate being placed at 37° C. for 12 hours in the presence of 5% CO2, the cells were cultured and were then transformed. For the transformation, two types of vectors were transfected into the aforementioned cells using a transformation reagent (trade name: Effectene Transfection Reagent, QIAGEN). The vectors used herein were pNF-κB-SEAP (trade name) (CLONTECH) (0.4 μg) and pLuc-control (trade name) (CLONTECH) (0.02 μg). The cells transfected with both of the vectors were cultured at 37° C. for 16 hours in the presence of 5% CO2, and then the cultured cells were detached from the aforementioned test plate using trypsin. The detached cells were dispensed into a 96-well plate so that 0.2×10^4 cells were contained in each well. The cells thus dispensed were cultured for two hours. […] The medium thus collected was evaluated for the secreated alkaline phosphatase (SEAP) activity based on the activity of NF-κB contained in the medium using a kit (trade name: Great EscAPe SEAP kit, CLONTECK). […]
(Reporter assays use an easily measured gene product as a stand-in for the process of interest.)

For assay [1], the system named is nuclear transcription factor AP-1. Put plainly: nuclear transcription factor AP-1 SEAP reporter assay in TPA-stimulated HeLa cells. The class given is cell-based. Particulars: TPA 4 μg/mL, 24 h. Here is the method:
as §1, with “were pAP-1 (PMA)-SEAP” for “were pNF-κB-SEAP”, “of the nuclear transcription factor AP-1” for “of NF-κB”, “the medium,” for “the medium”

For the molecule `CC(O)(CC(=O)O)CC(=O)OCC1OC(Oc2cc(O)c3c(=O)cc(-c4ccc(O)cc4)oc3c2)C(O)C(O)C1O` (stereo not shown) [chamaemeloside, apigenin 7-glucoside-6″-(3′″-hydroxy-3′″-methyl-glutarate)], in the assay on NF-κB (HeLa cells), the “expression of NF-κB (FIG. 3)” value is “inhibited the expression of NF-κB in a concentration-dependent manner”. For the same molecule, the 50% inhibitory concentration (IC50) with NF-κB (Homo sapiens, HeLa cells transfected with pNF-κB-SEAP and pLuc-control, corrected by luciferase activity, read-out: IC50 of inhibition of NF-κB expression (SEAP activity)) came to 80 µg/mL (≈ 139 µM); in assay [1] (Homo sapiens, HeLa cells transfected with pAP-1 (PMA)-SEAP and pLuc-control, corrected by luciferase activity, read-out: IC50 of inhibition of nuclear transcription factor AP-1 expression (SEAP activity)), 5 µg/mL (≈ 8.67 µM). Also, the “expression of the nuclear transcription factor AP-1 (FIG. 2)” value in assay [1] (HeLa cells, 10, 5.0, 2.5, 1.0 μg/mL) was “suppressed (inhibited) in a concentration-dependent manner”.

As usually defined, the IC50 is the concentration needed to halve the response being measured.
